Measured values taken from US6965021B2, “Feedback-resistant pyruvate carboxylase gene from corynebacterium” (Archer-Daniels-Midland Company, priority 2000, dated 2005).
Where two headings read alike, the source gives them in different places.

Assays:
[1] = target: Corynebacterium glutamicum NRRL B-11474 (BF100) pyruvate carboxylase, feedback-resistant variant (M1V, E153D, A182S, A206S, H227R, A455G, D1120E), SEQ ID NO:2 (Corynebacterium glutamicum, UniProt H7C7K2, A182S/A206S/A455G/D1120E/E153D/H227R/M1V)
Description: (§1) Pyruvate carboxylate and phosphoenol pyruvate carboxylate assays were performed with permeabilized cells prepared by the following method. Log phase cells were harvested by centrifugation for 10 min at 5000×g at 4° C. and washed with 20 ml of the ice-cold washing buffer (50 mM Tris/HCl [pH 6.3] containing 50 mM NaCl). The cell pellet was resuspended in an ice-cold Hepes buffer (100 mM Hepes [pH 7.5] containing 20% Glycerol) to reach a final concentration of 25 g dry cell weight/liter. Resuspended cells were permeabilized by adding 30 μl of a 10% Hexadecyltrimethyl-ammonium bromide (CTAB) (w/v) solution to 1 ml of cells to give a final concentration of 0.3% (CTAB)(v/v).
The reaction was started at 30° C. with the addition of 10 μl of the permeabilized cell suspension, and the formation of DTNB-thiophenolate was followed over time at 412 nm. Relevant standards and controls were carried out in the same manner.
To account for the intrinsic loss of OAA during the experiment, a continuous assay was carried out by coupling the two-reaction assay to a one-reaction assay in presence of an excess of citrate synthase. The amount of permeabilized cells added in the assay was optimized to obtain a detectable activity, with the lowest possible background absorbency due to the presence of cells.
Pyruvate carboxylase activity was determined as a function of various concentrations of its substrates: pyruvate, bicarbonate and ATP (FIG. 3). Based on the data generated, the affinity constants of pyruvate carboxylase for its substrates were determined (Table 2).
To determine the effect of aspartate on the activity of pyruvate carboxylase, aspartate was added at different concentrations in the spectrophotometer cuvette and enzyme activities were measured. As a comparison, the same experiment was carried out with PEPC in ATCC 21253 (FIG. 5).
Pyruvate carboxylase activity was measured in the presence of different concentrations of acetyl-CoA (FIG. 6). […] The effect of acetyl-CoA on citrate synthase itself was studied also.

[2] = target: T1, Corynebacterium glutamicum ATCC 21253 phosphoenol pyruvate carboxylase (PEPC) (Corynebacterium glutamicum, UniProt P12880); test: Phosphoenol pyruvate carboxylase assay (permeabilized cells), ATCC 21253; type: biochemical; conditions: no concentration stated
T1 sequence (P12880 1-919): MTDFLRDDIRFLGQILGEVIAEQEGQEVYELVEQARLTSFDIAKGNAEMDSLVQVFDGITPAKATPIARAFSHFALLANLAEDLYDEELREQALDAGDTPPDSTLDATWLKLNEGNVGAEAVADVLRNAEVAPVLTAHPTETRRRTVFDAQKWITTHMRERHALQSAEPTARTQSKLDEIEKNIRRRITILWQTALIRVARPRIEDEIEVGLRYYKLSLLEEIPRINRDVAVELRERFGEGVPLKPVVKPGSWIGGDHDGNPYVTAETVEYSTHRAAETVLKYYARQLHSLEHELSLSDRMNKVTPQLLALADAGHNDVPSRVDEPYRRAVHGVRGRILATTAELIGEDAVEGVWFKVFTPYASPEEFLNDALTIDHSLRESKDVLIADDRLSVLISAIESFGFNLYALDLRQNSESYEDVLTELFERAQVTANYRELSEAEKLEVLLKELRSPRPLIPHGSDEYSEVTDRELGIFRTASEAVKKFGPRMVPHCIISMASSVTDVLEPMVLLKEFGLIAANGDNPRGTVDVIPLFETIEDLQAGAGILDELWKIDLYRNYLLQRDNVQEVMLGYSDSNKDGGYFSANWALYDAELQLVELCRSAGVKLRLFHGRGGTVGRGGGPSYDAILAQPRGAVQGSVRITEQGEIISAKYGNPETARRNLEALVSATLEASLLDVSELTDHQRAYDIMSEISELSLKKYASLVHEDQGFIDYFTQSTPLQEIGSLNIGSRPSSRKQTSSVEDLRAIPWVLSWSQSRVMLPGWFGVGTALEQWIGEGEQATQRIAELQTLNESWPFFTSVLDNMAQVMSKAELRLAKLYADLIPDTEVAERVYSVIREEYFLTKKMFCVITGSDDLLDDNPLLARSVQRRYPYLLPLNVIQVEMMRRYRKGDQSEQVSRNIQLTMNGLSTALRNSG
Description: as §1
For determination of phosphoenol pyruvate carboxylase activity, the assay mixture contained 10 mM phosphoenol pyruvate, 14 mM KHCO3, 4 mM MgCl2, 50 μmole acetyl-CoA, 0.3 mg bovine serum albumin, 0.055 U citrate synthase and 50 mM sodium phosphate buffer ([pH 7.5] containing 0.1 mg 5,5′-Dithio-bis(2-nitrobenzoic acid) (DTNB)) in a final volume of 1 ml. The reaction was carried out in the same conditions described for the pyruvate carboxylase assay.
Aspartate inhibits phosphoenol pyruvate carboxylase (PEPC) activity. To determine the effect of aspartate on the activity of pyruvate carboxylase, aspartate was added at different concentrations in the spectrophotometer cuvette and enzyme activities were measured. […]

Compound: N[C@@H](CC(=O)O)C(=O)O [aspartate, aspartic acid]
- effect of aspartate on pyruvate carboxylase activity ([1]; 0-30 mM aspartate): activated
- effect of aspartate on pyruvate carboxylase activity ([1]; 30-100 mM aspartate): inhibited
- inhibition of PEPC by aspartate [2]: strongly inhibited
